Measurements taken from PubChem BioAssay (NCI).
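48-hour exposure; five concentrations; linearly interpolated endpoints. TGI marks complete inhibition of growth.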

Assays:
Assay in all cases: growth of human tumour cells (NCI), 48 h
M19-MEL melanoma = tested on: M19-MEL melanoma
OVCAR-3 ovarian = tested on: OVCAR-3 ovarian
DLD-1 colon = tested on: DLD-1 colon
HCT-116 colon = tested on: HCT-116 colon
DMS 273 small cell lung = tested on: DMS 273 small cell lung
UACC-257 melanoma = tested on: UACC-257 melanoma
TK-10 renal = tested on: TK-10 renal
SK-MEL-5 melanoma = tested on: SK-MEL-5 melanoma
SNB-75 CNS = tested on: SNB-75 CNS
HT29 colon = tested on: HT29 colon
SK-MEL-28 melanoma = tested on: SK-MEL-28 melanoma
A498 renal = tested on: A498 renal
MALME-3M melanoma = tested on: MALME-3M melanoma
OVCAR-5 ovarian = tested on: OVCAR-5 ovarian
K-562 leukemia = tested on: K-562 leukemia
KM20L2 colon = tested on: KM20L2 colon
EKVX NSCLC = tested on: EKVX NSCLC
SNB-19 CNS = tested on: SNB-19 CNS
SK-OV-3 ovarian = tested on: SK-OV-3 ovarian
RXF 393 renal = tested on: RXF 393 renal
U251 CNS = tested on: U251 CNS
XF 498 CNS = tested on: XF 498 CNS
NCI-H460 lung = tested on: NCI-H460 lung
MOLT-4 leukemia = tested on: MOLT-4 leukemia
CAKI-1 renal = tested on: CAKI-1 renal
HCC-2998 colon = tested on: HCC-2998 colon
LXFL 529 NSCLC = tested on: LXFL 529 NSCLC
NCI-H23 lung = tested on: NCI-H23 lung
M14 melanoma = tested on: M14 melanoma
HL-60(TB) leukemia = tested on: HL-60(TB) leukemia
UACC-62 melanoma = tested on: UACC-62 melanoma
DMS 114 small cell lung = tested on: DMS 114 small cell lung
RPMI-8226 leukemia = tested on: RPMI-8226 leukemia
COLO 205 colon = tested on: COLO 205 colon
OVCAR-4 ovarian = tested on: OVCAR-4 ovarian
CCRF-CEM leukemia = tested on: CCRF-CEM leukemia
SF-295 CNS = tested on: SF-295 CNS
KM12 colon = tested on: KM12 colon
NCI-H522 lung = tested on: NCI-H522 lung
SN12C renal = tested on: SN12C renal
SW-620 colon = tested on: SW-620 colon
SF-268 CNS = tested on: SF-268 CNS
HOP-62 NSCLC = tested on: HOP-62 NSCLC
A549 NSCLC = tested on: A549 NSCLC
OVCAR-8 ovarian = tested on: OVCAR-8 ovarian
ACHN renal = tested on: ACHN renal
SK-MEL-2 melanoma = tested on: SK-MEL-2 melanoma
HOP-92 NSCLC = tested on: HOP-92 NSCLC
HCT-15 colon = tested on: HCT-15 colon
IGROV1 ovarian = tested on: IGROV1 ovarian
SF-539 CNS = tested on: SF-539 CNS
UO-31 renal = tested on: UO-31 renal
786-0 renal = tested on: 786-0 renal
NCI-H226 lung = tested on: NCI-H226 lung
LOX IMVI melanoma = tested on: LOX IMVI melanoma

Measured: TGI

CCNc1cnc2c(n1)c(=O)n(C)c(=O)n2C
not listed: 786-0 renal | NCI-H226 lung | LOX IMVI melanoma
> 100 µM: all other assays above

CC(C)NC(C)C(C)c1ccccc1 (stereo not drawn)
not listed: OVCAR-5 ovarian | HL-60(TB) leukemia | HOP-92 NSCLC | HCT-15 colon
> 100 µM: all other assays above
